Where a name gives a salt, the structure may show the parent alone.
What follows are molecules tested against T1, GPR6 receptor (Homo sapiens, UniProt P46095) (assay: Inhibition of cAMP Activity of GPR6 In Vitro Assay (CHO-K1 cells, HTRF cAMP)). Conditions: compounds of Compound Table 1; inhibition of constitutive cAMP activity of GPR6 expressed in CHO-K1 cells; approximate IC50; read-out: IC50.
T1 construct: expressed in transfected cells
Assay type: cell-based
Outline: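 CHO-K1 cells with doxycycline-induced (1 μg/ml, 20 h) GPR6 treated with compounds 45 min at 37 °C in Ringer's buffer (pH 7.4) with 0.5% fatty acid free BSA. Constitutive cAMP measured by Lance HTRF Ultra cAMP; IC50 from four-parameter logistic fit.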

T1 sequence (P46095 whole entry): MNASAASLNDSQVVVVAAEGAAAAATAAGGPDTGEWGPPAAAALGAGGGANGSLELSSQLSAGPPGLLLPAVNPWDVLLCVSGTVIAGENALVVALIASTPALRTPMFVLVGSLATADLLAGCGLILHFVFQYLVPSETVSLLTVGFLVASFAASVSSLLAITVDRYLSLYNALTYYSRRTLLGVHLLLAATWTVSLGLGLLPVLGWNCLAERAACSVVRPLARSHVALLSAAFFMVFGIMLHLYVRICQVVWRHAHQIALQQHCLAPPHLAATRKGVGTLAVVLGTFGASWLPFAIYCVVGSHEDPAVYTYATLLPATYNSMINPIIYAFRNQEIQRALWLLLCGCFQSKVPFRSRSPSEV

Point of comparison: `Cc1ccc(Nc2nc3ccccc3nc2N2CCN(Cc3cccc(Cl)c3)CC2)cc1` [Cpd 30, 3-(4-(3-chlorobenzyl)piperazin-1-yl)-N-(p-tolyl)quinoxalin-2-amine, 2,2,2-trifluoroacetic acid salt], IC50 26.2 µM. Against it:
- Clc1cccc(CN2CCN(c3nc4cccnc4nc3Nc3ccccc3)CC2)c1 [Cpd 22, 2-(4-(3-chlorobenzyl)piperazin-1-yl)-N-phenylpyrido[2,3-b]pyrazin-3-amine, 2,2,2-trifluoroacetic acid salt] — 3.4-fold lower, 7.67 µM
- COc1ccc(Nc2nc3ccccc3nc2N2CCN(Cc3cccc(Cl)c3)CC2)cc1 [Cpd 31, 3-(4-(3-chlorobenzyl)piperazin-1-yl)-N-(4-methoxyphenyl)quinoxalin-2-amine, 2,2,2-trifluoroacetic acid salt] — 4.3-fold lower, 6.14 µM
- Fc1ccc(Nc2nc3ccccc3nc2N2CCN(Cc3cccc(Cl)c3)CC2)cc1 [Cpd 38, 3-(4-(3-chlorobenzyl)piperazin-1-yl)-N-(4-fluorophenyl)quinoxalin-2-amine, 2,2,2-trifluoroacetic acid salt] — 4.6-fold lower, 5.73 µM
- O=C(c1cc(Cl)ccc1Cl)N1CCN(c2nc3ccccc3nc2NC2CCCC2)CC1 [Cpd 39, (4-(3-(cyclopentylamino)quinoxalin-2-yl)piperazin-1-yl)(2,5-dichlorophenyl)methanone, 2,2,2-trifluoroacetic acid salt] — 4.3-fold lower, 6.15 µM
- Clc1ccc(Cl)c(CN2CCN(c3nc4ccccc4nc3NCC3CC3)CC2)c1 [Cpd 42, N-(cyclopropylmethyl)-3-(4-(2,5-dichlorobenzyl)piperazin-1-yl)quinoxalin-2-amine, 2,2,2-trifluoroacetic acid salt] — 8.3-fold lower, 3.16 µM
- Clc1ccc(Cl)c(CN2CCN(c3nc4ccc(Br)cc4nc3NC3CC3)CC2)c1 [Cpd 45, 7-bromo-N-cyclopropyl-3-(4-(2,5-dichlorobenzyl)piperazin-1-yl)quinoxalin-2-amine, 2,2,2-trifluoroacetic acid salt] — 11-fold lower, 2.34 µM
- Clc1ccc(Cl)c(CN2CCN(c3nc4cc(Br)ccc4nc3NC3CC3)CC2)c1 [Cpd 46, 6-bromo-N-cyclopropyl-3-(4-(2,5-dichlorobenzyl)piperazin-1-yl)quinoxalin-2-amine, 2,2,2-trifluoroacetic acid salt] — 5.4-fold lower, 4.82 µM
- N#Cc1ccc(Nc2nc3ccccc3nc2N2CCN(Cc3cc(Cl)ccc3Cl)CC2)cc1 [Cpd 58, 4-((3-(4-(2,5-dichlorobenzyl)piperazin-1-yl)quinoxalin-2-yl)amino)benzonitrile] — 4.7-fold lower, 5.53 µM
- Clc1ccc(Cl)c(CN2CCN(c3nc4ncccc4nc3NC3CC3)CC2)c1 [Cpd 63, N-cyclopropyl-3-(4-(2,5-dichlorobenzyl)piperazin-1-yl)pyrido[2,3-b]pyrazin-2-amine] — 23-fold lower, 1.13 µM
- COCCCNc1nc2ccccc2nc1N1CCN(Cc2cc(Cl)ccc2Cl)CC1 [Cpd 66, 3-(4-(2,5-dichlorobenzyl)piperazin-1-yl)-N-(3-methoxypropyl)quinoxalin-2-amine] — 14-fold lower, 1.94 µM
- CS(=O)(=O)c1ccc(C(=O)N2CCN(c3nc4ccccc4nc3NC3CC3)CC2)c(Cl)c1 [Cpd 67, (2-chloro-4-(methylsulfonyl)phenyl)(4-(3-(cyclopropylamino)quinoxalin-2-yl)piperazin-1-yl)methanone] — 25-fold lower, 1.03 µM
- N#Cc1ccc(C(=O)N2CCN(c3nc4ccccc4nc3NC3CC3)CC2)cc1 [Cpd 75, 4-(4-(3-(cyclopropylamino)quinoxalin-2-yl)piperazine-1-carbonyl)benzonitrile, 2,2,2-trifluoroacetic acid salt] — within 1.5-fold, 21.8 µM
- Fc1ccc(F)c(CN2CCN(c3nc4ccccc4nc3NC3CC3)CC2)c1 [Cpd 81, N-cyclopropyl-3-(4-(2,5-difluorobenzyl)piperazin-1-yl)quinoxalin-2-amine, 2,2,2-trifluoroacetic acid salt] — 5.7-fold lower, 4.58 µM
- COc1ccc(Br)c(C(=O)N2CCN(c3nc4ccccc4nc3NC3CC3)CC2)c1 [Cpd 85, (2-bromo-5-methoxyphenyl)(4-(3-(cyclopropylamino)quinoxalin-2-yl)piperazin-1-yl)methanone, 2,2,2-trifluoroacetic acid salt] — 3.5-fold lower, 7.55 µM
- O=C(c1ccc(F)c(Br)c1)N1CCN(c2nc3ccccc3nc2NC2CC2)CC1 [Cpd 89, (3-bromo-4-fluorophenyl)(4-(3-(cyclopropylamino)quinoxalin-2-yl)piperazin-1-yl)methanone, 2,2,2-trifluoroacetic acid salt] — 5.5-fold lower, 4.78 µM
- N#Cc1cccc(CN2CCN(c3nc4ccccc4nc3NC3CC3)CC2)c1 [Cpd 95, 3-((4-(3-(cyclopropylamino)quinoxalin-2-yl)piperazin-1-yl)methyl)benzonitrile, 2,2,2-trifluoroacetic acid salt] — within 1.5-fold, 22.2 µM
- Cc1cc(C(=O)N2CCN(c3nc4ccccc4nc3NC3CC3)CC2)no1 [Cpd 98, (4-(3-(cyclopropylamino)quinoxalin-2-yl)piperazin-1-yl)(5-methylisoxazol-3-yl)methanone] — 8.2-fold lower, 3.21 µM
- Clc1cc(CN2CCN(c3nc4ccccc4nc3NC3CC3)CC2)c(Cl)s1 [Cpd 99, N-cyclopropyl-3-(4-((2,5-dichlorothiophen-3-yl)methyl)piperazin-1-yl)quinoxalin-2-amine, 2,2,2-trifluoroacetic acid salt] — 4.3-fold lower, 6.03 µM
- c1ccc2nc(N3CCN(Cc4coc5ccccc45)CC3)c(NC3CC3)nc2c1 [Cpd 100, 3-(4-(benzofuran-3-ylmethyl)piperazin-1-yl)-N-cyclopropylquinoxalin-2-amine] — 6.6-fold lower, 3.96 µM
- Cc1cc(C)c2nc(N3CCN(Cc4cc(Cl)ccc4Cl)CC3)c(NC3CC3)nc2c1 [Cpd 103, N-cyclopropyl-3-(4-(2,5-dichlorobenzyl)piperazin-1-yl)-5,7-dimethylquinoxalin-2-amine] — 4.9-fold lower, 5.31 µM
- O=S(=O)(c1ccccc1)N1CCN(c2nc3ccccc3nc2NC2CC2)CC1 [Cpd 105, N-cyclopropyl-3-(4-(phenylsulfonyl)piperazin-1-yl)quinoxalin-2-amine] — 4.6-fold lower, 5.66 µM
- CC(C)CNc1nc2ccccc2nc1N1CCN(Cc2cc(Cl)ccc2Cl)CC1 [Cpd 110, 3-(4-(2,5-dichlorobenzyl)piperazin-1-yl)-N-isobutylquinoxalin-2-amine, 2,2,2-trifluoroacetic acid salt] — 4.3-fold lower, 6.03 µM
- CC(C)Nc1nc2ccccc2nc1N1CCN(Cc2cc(Cl)ccc2Cl)CC1 [Cpd 111, 3-(4-(2,5-dichlorobenzyl)piperazin-1-yl)-N-isopropylquinoxalin-2-amine, 2,2,2-trifluoroacetic acid salt] — 7.9-fold lower, 3.31 µM
- CC(C)CCNc1nc2ccccc2nc1N1CCN(Cc2cc(Cl)ccc2Cl)CC1 [Cpd 115, 3-(4-(2,5-dichlorobenzyl)piperazin-1-yl)-N-isopentylquinoxalin-2-amine, 2,2,2-trifluoroacetic acid salt] — 6.6-fold lower, 3.98 µM
- Cc1cc(Br)ccc1C(=O)N1CCN(c2nc3ccccc3nc2NC2CC2)CC1 [Cpd 122, (4-bromo-2-methylphenyl)(4-(3-(cyclopropylamino)quinoxalin-2-yl)piperazin-1-yl)methanone, 2,2,2-trifluoroacetic acid salt] — 2.5-fold lower, 10.3 µM
- Clc1cccc(CN2CCN(c3nc4ccccc4nc3Nc3ncccn3)CC2)c1 [Cpd 126, 3-(4-(3-chlorobenzyl)piperazin-1-yl)-N-(pyrimidin-2-yl)quinoxalin-2-amine, 2,2,2-trifluoroacetic acid salt] — 1.8-fold higher, 47 µM
